Converted amounts (≈) assume the structure as drawn.
Legend:
THP1 cells [1] = test: Interferon β induction assay based on THP1 cells (ELISA); type: cell-based; conditions: Homo sapiens, THP-1, compound 20 μM, 3.5 h, read-out: Secretion of IFNβ in THP1 cells, effect relative to 2′,3′-cGAMP at 20 μM (%)
Protocol: Secreted cytokine IFNβ was determined by ELISA. THP1 cells were inoculated in a 96-well plate (there was no serum contained in an RPMI 1640 medium), such that the number of cells in each well ranged from 5×10^5 to 7×10^5. A DMSO stock solution of 10 mM was prepared from a compound to be tested, diluted with a culture medium to a target concentration to be added into the 96-well plate containing cells (the final concentration of said compound was 20 μM, and the final volume of each well was 200 μL), and cultured at 37° C. in 5% CO2 for 3.5 h. The cells were collected at 4° C. and centrifuged at 1,000 rpm for 20 mins, and supernate was collected for ELISA determination. There were three repeated wells set in the assay. The result was shown in the following tablet, with 2′,3′-cGAMP as a positive control, where the test result was represented as a percentage of activity relative to 2′,3′-cGAMP at a concentration of 20 μM.

THP1-dual cells = test: Luciferase assay based on THP1-dual cells; type: cell-based; conditions: final concentration of compound 10 μL (so in the source), 24 h at 37° C.
Protocol: (§1) THP1-dual™ (Invivogen: thpd-nfis) cells or RAW-Lucia™ (Invivogen: rawl-isg) cells were diluted using a culture medium, and 180 μL of cell suspension was sucked and inoculated in a 96-well plate, such that each well contain 1×10^5 cells. 20 μL of a compound to be tested was added into the 96-well plate (the final concentration of said compound was […], and the final volume of each well was […]) and cultured at 37° C. for 24 h. 10 μL of supernatant was sucked into a new 96-well white plate, and 50 μL of a QUANT-Luc reagent was added. After full and even mixing, a microplate reader was used immediately for determination. There were three repeated wells set in the assay. The test result was represented as agitation fold and calculated by (test well−blank well)/(negative well−blank well). The test result was in the following tablet, with 2′,3′-cGAMP as a positive control, where *** represented an agitation fold of 20 or more, ** represented an agitation fold of 10 to 20, and * represented an agitation fold of 1 to 10.

RAW-Lucia cells = test: Luciferase assay based on RAW-Lucia cells; type: cell-based; conditions: 24 h at 37° C.
Protocol: as §1

LogP = type: physicochemical
Source text: (§2) The test result was shown in the following table, with MSA2 (Science. 2020, 369, eaba6098) as a reference compound.

Water solubility = type: physicochemical
Source text: as §2

[2] = Stability of rat liver microsome within 2 h; type: in vitro ADME; conditions: rat, microsomes, 2 h
Source text: as §2

[3] = Stability of human plasma within 24 h; type: in vitro ADME
Source text: as §2

THP1 cells [4] = test: THP1 cell growth inhibition activity; type: cell-based
Source text: as §2

SMILES	Emax at 20 µM (THP1 cells [1]) [%]	Agitation activity in luciferase assay, THP1-dual (agitation fold) (THP1-dual cells)	Agitation activity in luciferase assay, RAW-Lucia (agitation fold) (RAW-Lucia cells)	also measured
CC(CC(=O)c1cc2cc3c(cc2[se]1)OCO3)C(=O)O (stereo not drawn) [I-8, 2-methyl-4-oxo-4-(selenophene[2′,3′:4,5]benzo[1,2-d][1,3]dioxo-6-yl)butanoic acid]	20	* (* represented an agitation fold of 1 to 10)	* (* represented an agitation fold of 1 to 10)	
COc1cc2cc(C(=O)CC(C(=O)O)C(C)C)[se]c2cc1OC (stereo not drawn) [I-17, 4-(5,6-dimethoxybenzo[b]selenophene-2-yl)-2-isopropyl-4-oxo-butanoic acid]	293	*** (*** represented an agitation fold of 20 or more)	** (** represented an agitation fold of 10 to 20)	
COc1cc2cc(C(=O)C[C@H](C)C(=O)O)[se]c2cc1OC [I-4, S-4-(5,6-dimethoxybenzo[b]selenophene-2-yl)-2-methyl-4-oxo-butanoic acid]	201	*** (*** represented an agitation fold of 20 or more)	*** (*** represented an agitation fold of 20 or more)	
CC[C@@H](CC(=O)c1cc2cc(OC)c(OC)cc2[se]1)C(=O)O [I-16, S-4-(5,6-dimethoxybenzo[b]selenophene-2-yl)-2-ethyl-4-oxo-butanoic acid]	281	*** (*** represented an agitation fold of 20 or more)	*** (*** represented an agitation fold of 20 or more)	
COc1cc2cc(C(=O)C3CCC3C(=O)O)[se]c2cc1OC (stereo not drawn) [I-23]	273	*** (*** represented an agitation fold of 20 or more)	*** (*** represented an agitation fold of 20 or more)	
COCC(CC(=O)c1cc2cc(OC)c(OC)cc2[se]1)C(=O)O (stereo not drawn) [I-19, 4-(5,6-dimethoxybenzo[b]selenophene-2-yl)-2-(methoxymethyl)-4-oxo-butanoic acid]	107	** (** represented an agitation fold of 10 to 20)	** (** represented an agitation fold of 10 to 20)	
CCOC(=O)C(C)CC(=O)c1cc2cc(OC)c(OC)cc2[se]1 (stereo not drawn) [I-11, 4-(5,6-dimethoxybenzo[b]selenophene-2-yl)-2-methyl-4-oxo-ethyl butyrate]	9	* (* represented an agitation fold of 1 to 10)	** (** represented an agitation fold of 10 to 20)	
COc1cc2cc(C(=O)CC(C)C(N)=O)[se]c2cc1OC (stereo not drawn) [I-13, 4-(5,6-dimethoxybenzo[b]selenophene-2-yl)-2-methyl-4-oxo-butyramide]	6	* (* represented an agitation fold of 1 to 10)	* (* represented an agitation fold of 1 to 10)	
CCCCC(CC(=O)c1cc2cc(OC)c(OC)cc2[se]1)C(=O)O (stereo not drawn) [I-20, 2-(2-(5,6-dimethoxybenzo[b]selenophene-2-yl)-2-oxo-ethyl) hexanoic acid]	132	** (** represented an agitation fold of 10 to 20)	** (** represented an agitation fold of 10 to 20)	
COc1cc2cc(C(=O)C3CC3C(=O)O)[se]c2cc1OC (stereo not drawn) [I-22]	115	** (** represented an agitation fold of 10 to 20)	** (** represented an agitation fold of 10 to 20)	
COc1cc2cc(C(=O)CCC(=O)O)sc2cc1OC [MSA2, reference compound]				logP (LogP): 1.5; water solubility, PBS (Water solubility): 0.4 mg/mL (≈ 1360 µM); water solubility, Water (Water solubility): 6 µg/mL (≈ 20.4 µM); RLM @ 2 h (%) [2]: >90%; hPlasma @ 24 h (%) [3]: >90%; IC50 (THP1 cells [4]): > 100 µM
COc1cc2cc(C(=O)C[C@@H](C)C(=O)O)[se]c2cc1OC [I-3, R-4-(5,6-dimethoxybenzo[b]selenophene-2-yl)-2-methyl-4-oxo-butanoic acid]	234	*** (*** represented an agitation fold of 20 or more)	*** (*** represented an agitation fold of 20 or more)	
CCOc1cc2cc(C(=O)CC(C)C(=O)O)[se]c2cc1OC (stereo not drawn) [I-9, 4-(5-ethoxy-6-dimethoxybenzo[b]selenophene-2-yl)-2-methyl-4-oxo-butanoic acid]	96	** (** represented an agitation fold of 10 to 20)	** (** represented an agitation fold of 10 to 20)	
COc1cc2cc(C(=O)CC(C)C(=O)NO)[se]c2cc1OC (stereo not drawn) [I-12, 4-(5,6-dimethoxybenzo[b]selenophene-2-yl)-N-hydroxyl-2-methyl-4-oxo-butyramide]	11	* (* represented an agitation fold of 1 to 10)	* (* represented an agitation fold of 1 to 10)	
CC[C@H](CC(=O)c1cc2cc(OC)c(OC)cc2[se]1)C(=O)O [I-15, R-4-(5,6-dimethoxybenzo[b]selenophene-2-yl)-2-ethyl-4-oxo-butanoic acid]	2	*** (*** represented an agitation fold of 20 or more)	*** (*** represented an agitation fold of 20 or more)	
COc1cc2cc(C(=O)CC(C(=O)O)C3CC3)[se]c2cc1OC (stereo not drawn) [I-18, 2-cyclopropyl-4-(5,6-dimethoxybenzo[b]selenophene-2-yl)-4-oxo-butanoic acid]	277	*** (*** represented an agitation fold of 20 or more)	** (** represented an agitation fold of 10 to 20)	
COc1ccc2cc(C(=O)CC(C)C(=O)O)[se]c2c1 (stereo not drawn) [I-6, 4-(6-dimethoxybenzo[b]selenophene-2-yl)-2-methyl-4-oxo-butanoic acid]	15	* (* represented an agitation fold of 1 to 10)	* (* represented an agitation fold of 1 to 10)	
COc1cc2cc(C(=O)CCCC(=O)O)[se]c2cc1OC [I-21, 5-(5,6-dimethoxybenzo[b]selenophene-2-yl)-5-oxo-pentanoic acid]	12	* (* represented an agitation fold of 1 to 10)	* (* represented an agitation fold of 1 to 10)	
COc1ccc2[se]c(C(=O)CC(C)C(=O)O)cc2c1 (stereo not drawn) [I-5]	59	* (* represented an agitation fold of 1 to 10)	* (* represented an agitation fold of 1 to 10)	
COc1cc2cc(C(=O)C3CCCCC3C(=O)O)[se]c2cc1OC (stereo not drawn) [I-24]	142	** (** represented an agitation fold of 10 to 20)	** (** represented an agitation fold of 10 to 20)	
COc1cc2[se]c(C(=O)CC(C)C(=O)O)cc2cc1O (stereo not drawn) [I-7, 4-(5-hydroxyl-6-dimethoxybenzo[b]selenophene-2-yl)-2-methyl-4-oxo-butanoic acid]	75	** (** represented an agitation fold of 10 to 20)	* (* represented an agitation fold of 1 to 10)	
COc1cc2[se]c(C(=O)CC(C)C(=O)O)cc2cc1OC(C)C (stereo not drawn) [I-10, 4-(5-isopropoxy-6-dimethoxybenzo[b]selenophene-2-yl)-2-methyl-4-oxo-butanoic acid]	91	** (** represented an agitation fold of 10 to 20)	** (** represented an agitation fold of 10 to 20)	
